The numbers were not newly measured in patent publication US20030129242A1, “Sterile filtered nanoparticulate formulations of budesonide and beclomethasone having tyloxapol as a surface stabilizer” (priority 2002, published 2003), which cites them from elsewhere.

In the case of `CC1(C)O[C@@H]2C[C@H]3[C@@H]4C[C@H](F)C5=CC(=O)C=C[C@]5(C)[C@H]4[C@@H](O)C[C@]3(C)[C@]2(C(=O)CO)O1` [Flunisolide, 6α-fluoro-11β, 16α, 17,21-tetrahydroxy-pregna-1,4-diene-3,20-dione cyclic-16,17-acetal with acetone], the solubility in water entry was “practically insoluble”.

With `CCCC1O[C@@H]2C[C@H]3C4CCC5=CC(=O)C=CC5(C)[C@H]4[C@@H](O)CC3(C)C2(C(=O)CO)O1` (mixture of isomers) [Budesonide, (RS)-11,16, 17,21-Tetrahydroxy-pregna-1,4-diene-3,20-dione cyclic 16,17-acetal with butraldehyde], the solubility in water entry was “practically insoluble”. Besides, the solubility in chloroform entry (chloroform) is “freely soluble”. Also, the solubility in ethanol entry (ethanol) is recorded as “sparingly soluble”. For the same molecule, the solubility in heptane entry (heptane) is “practically insoluble”.
